Assay results published in PubChem BioAssay (NCI).
Values joined by “and” are separate entries in the source; they are usually repeats but may differ in a detail not shown here. Equal entries are not always repeated.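 Exposure lasted 48 hours, with cells grown in 96-well plates and compounds tested at five concentrations. Abbreviation: GI50, concentration required for 50% inhibition of growth. TGI: concentration producing complete growth inhibition.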

Assays:
Test in all cases: inhibition of tumour cell growth, NCI panel, 48 h
[1] = test system: RPMI-8226 leukemia
[2] = test system: MDA-MB-231 breast
[3] = test system: SNB-19 CNS
[4] = test system: 786-0 renal
[5] = test system: NCI-H226 lung
[6] = test system: PC-3 prostate
[7] = test system: HCT-116 colon
[8] = test system: SK-MEL-5 melanoma
[9] = test system: SF-295 CNS
[10] = test system: HCT-15 colon

Row | SMILES | TGI [1] | TGI [2] [µM] | TGI [3] | TGI [4] [µM] | TGI [5] | TGI [6] [µM] | TGI [7] | TGI [8] | TGI [9] | TGI [10] | GI50 [1] [µM] | GI50 [3] [µM] | GI50 [5] [µM] | GI50 [7] [µM] | GI50 [8] [µM] | GI50 [9] [µM] | GI50 [10] [µM] | GI50 [2] [µM] | GI50 [6] [µM]
1 | c1ccc(/C(=N\Nc2nc3ccccc3[nH]2)c2ccccn2)cc1 | 1.07 µM | 41.2 | > 100 µM | 2.57 | 2.09 µM | 37.7 | 4.52 µM | 4.66 µM | 9.26 µM | 5.83 µM | – | – | – | – | – | – | – | – | –
2 | COC(=O)c1c(O)ccc2c1c1c(n2CCc2ccc(OC)c(OC)c2)C(=O)c2ccccc2C1=O | 28 µM | 52.3 | > 100 µM | 32 | 50.3 µM | 35.9 | 26.7 µM | 23.9 µM | 38 µM | 29.3 µM | – | – | – | – | – | – | – | – | –
3 | O=C1Nc2cccc(Cl)c2/C1=C\c1cccnc1 | – | – | 16.3 µM | 20.9 | – | > 100 | 11.3 µM | 27.4 µM | 34.6 µM | > 100 µM | – | – | – | – | – | – | – | – | –
4 | N#CC1(CCCI)CCCC1 | – | – | 31.6 µM | – | – | – | > 100 µM | 25.5 µM | 94.7 µM | > 100 µM | – | – | – | – | – | – | – | – | –
5 | N#Cc1c(-c2ccc([N+](=O)[O-])cc2)c2c([nH]c1=O)-c1ccccc1CCC2 | > 100 µM | > 100 | > 100 µM | > 100 | 96.2 µM | > 100 | > 100 µM | > 100 µM | > 100 µM | > 100 µM | – | – | – | – | – | – | – | – | –
6 | CC[C@@]1(O)CC(OC2CC(N3CCOCC3)C(O)C(C)O2)c2c(O)c3c(c(O)c2[C@H]1O)C(=O)c1cccc(O)c1C3=O (stereo not given in full) | 2.15 µM and 5.08 µM | 1.94 | 3.92 µM and 4.16 µM | 2.18 | 0.597 µM and 0.102 µM | 0.811 | 4.27 µM and 3.5 µM | 0.451 µM and 0.181 µM | 0.526 µM and 0.357 µM | 1.44 µM and 3.18 µM | 0.0561 | 0.0292 | 0.0184 | 0.0149 | 0.0175 | 0.0292 | 0.0358 | – | –
7 | CC(C)CCN(CCC(C)C)CC(=O)Nc1ccc(S(=O)(=O)c2ccc(NC(=O)CN(CCC(C)C)CCC(C)C)cc2)cc1 | – | 6.39 | 10.3 µM | – | 11.5 µM | 5.89 | – | 3.05 µM | 16.5 µM | 3.89 µM | – | 2.19 | 2.91 | – | 1.53 | 3.86 | 1.29 | 2.08 | 2.01
8 | O=C1OC(c2ccc(O)cc2)(c2ccc(O)cc2)c2ccc(Cl)c3cccc1c23 (tested in a mixture with another compound) | 28.4 µM | 26.1 | > 75 µM | – | 34 µM | 20.6 | 18.9 µM | 29.3 µM | 25.2 µM | 22.8 µM | – | – | – | – | – | – | – | – | –
9 | C[n+]1c2ccccc2c(N=[N+]=[N-])c2ccccc21 | > 10 µM | > 10 | > 10 µM | > 10 | > 10 µM | > 10 | > 10 µM | > 10 µM | > 10 µM | > 10 µM | – | – | – | – | – | – | – | – | –
10 | CC(=O)OC(C(=O)O)C(OC(C)=O)C(OC(C)=O)C(OC(C)=O)C(=O)O (stereo not given) | > 100 µM | > 100 | > 100 µM | – | > 100 µM | > 100 | > 100 µM | > 100 µM | > 100 µM | > 100 µM | – | – | – | – | – | – | – | – | –
11 | C=C(CN(C)C)C(=O)c1ccccc1OC | > 62.7 µM | 28 | > 87.6 µM | 30 | 62.7 µM | 31.9 | 30.9 µM | 31.1 µM | > 71.9 µM | 33.3 µM | – | – | – | – | – | – | – | – | –
12 | Cc1ncc(C(=O)Nc2ccc(CN3CCN(C)CC3)c(C(F)(F)F)c2)cc1C#Cc1cnc(N)c2ccc(C#N)cc12 | – | – | – | – | 0.593 µM | – | – | – | 33.1 µM | 1.5 µM | – | – | 0.0345 | – | – | 0.0545 | 0.0485 | – | –
13 | O=C(CSCC(=O)N/N=C\c1ccc(F)cc1F)N/N=C\c1ccc(F)cc1F | > 100 µM | > 100 | > 100 µM | > 100 | > 100 µM | – | > 100 µM | > 100 µM | > 100 µM | > 100 µM | – | – | – | – | – | – | – | – | –
14 | CCCCCCCCCCCCc1ccc(S(=O)(=O)O)cc1.[Cu+2] | > 100 µM | > 100 | > 100 µM | > 100 | – | > 100 | > 100 µM | > 100 µM | > 100 µM | > 100 µM | – | – | – | – | – | – | – | – | –
15 | Cc1csc2nc(-c3cccc([N+](=O)[O-])c3)c(/C=N/N=C(N)N)n12 | – | 2.95 | – | 2.91 | – | 3.08 | 3.3 µM | 2.74 µM | 3.12 µM | 3.71 µM | – | – | – | – | – | – | – | – | –
16 | c1ccc(CSC(SCc2ccccc2)c2cccc3ccccc23)cc1 | > 10 µM | > 10 | > 10 µM | – | > 10 µM | > 10 | > 10 µM | > 10 µM | > 10 µM | > 10 µM | – | – | – | – | – | – | – | – | –
17 | C[N+]1(C(CO)Cc2c[nH]c3ccccc23)Cc2ccccc2C1 (stereo not given) | > 100 µM | > 100 | > 100 µM | > 100 | > 100 µM | > 100 | > 100 µM | > 100 µM | > 100 µM | > 100 µM | – | – | – | – | – | – | – | – | –
18 | CC(C)CNC1=NCC(C)S1 (stereo not given) | > 100 µM | > 100 | > 100 µM | – | > 100 µM | > 100 | > 100 µM | > 100 µM | > 100 µM | > 100 µM | – | – | – | – | – | – | – | – | –
19 | O=C(O)c1cc2ccccc2c(N=Nc2ccc(S(=O)(=O)Nc3ccccn3)cc2)c1O | > 100 µM | > 100 | > 100 µM | > 100 | > 100 µM | > 100 | > 100 µM | > 100 µM | > 100 µM | > 100 µM | – | – | – | – | – | – | – | – | –
